Laboratory results as given in patent US10889587B2, “Tebipenem pivoxil crystalline forms, compositions including the same, methods of manufacture, and methods of use” (SPERO THERAPEUTICS, INC., priority 2017, dated 2021).

Key:
[1] = GVS (Gravimetric Vapor Sorption) and XRPD analysis post GVS; format: physicochemical
[2] = Storage stability: XRPD and HPLC analysis post storage at 40° C./75% RH or 25° C./97% RH; format: physicochemical; conditions: three days
From the text: Samples were run under ambient conditions as flat plate specimens using powder as received. The sample was gently packed into a cavity cut into polished, zero-background (510) silicon wafer. The sample was rotated in its own plane during analysis.

Structure (SMILES) | Hygroscopicity by GVS [1] | GVS uptake ([1]; from 0 to 90% RH) [%] | Appearance post storage [2]
CS(=O)(=O)O.C[C@@H](O)[C@H]1C(=O)N2C(C(=O)OCOC(=O)C(C)(C)C)=C(SC3CN(C4=NCCS4)C3)[C@H](C)[C@H]12 [Example 8, Tebeipenem Pivoxil Methane Sulfonate Salt (MSA)] | hygroscopic | 10.0 | –
CC(O)C1C(=O)N2C(C(=O)OCOC(=O)C(C)(C)C)=C(SC3CN(C4=NCCS4)C3)C(C)C12.O=S(=O)(O)CCS(=O)(=O)O (stereo not drawn) [Example 13, Tebipenem Pivoxil Edisylate (EDSA) Salt] | – | – | deliquesced
